Results as given in US6426331B1, “Inhibitors of STAT function” (Tularik Inc., priority 1998, dated 2002).

Target: T1, STAT6 (Homo sapiens, UniProt P42226)
T1 sequence (P42226 1-847): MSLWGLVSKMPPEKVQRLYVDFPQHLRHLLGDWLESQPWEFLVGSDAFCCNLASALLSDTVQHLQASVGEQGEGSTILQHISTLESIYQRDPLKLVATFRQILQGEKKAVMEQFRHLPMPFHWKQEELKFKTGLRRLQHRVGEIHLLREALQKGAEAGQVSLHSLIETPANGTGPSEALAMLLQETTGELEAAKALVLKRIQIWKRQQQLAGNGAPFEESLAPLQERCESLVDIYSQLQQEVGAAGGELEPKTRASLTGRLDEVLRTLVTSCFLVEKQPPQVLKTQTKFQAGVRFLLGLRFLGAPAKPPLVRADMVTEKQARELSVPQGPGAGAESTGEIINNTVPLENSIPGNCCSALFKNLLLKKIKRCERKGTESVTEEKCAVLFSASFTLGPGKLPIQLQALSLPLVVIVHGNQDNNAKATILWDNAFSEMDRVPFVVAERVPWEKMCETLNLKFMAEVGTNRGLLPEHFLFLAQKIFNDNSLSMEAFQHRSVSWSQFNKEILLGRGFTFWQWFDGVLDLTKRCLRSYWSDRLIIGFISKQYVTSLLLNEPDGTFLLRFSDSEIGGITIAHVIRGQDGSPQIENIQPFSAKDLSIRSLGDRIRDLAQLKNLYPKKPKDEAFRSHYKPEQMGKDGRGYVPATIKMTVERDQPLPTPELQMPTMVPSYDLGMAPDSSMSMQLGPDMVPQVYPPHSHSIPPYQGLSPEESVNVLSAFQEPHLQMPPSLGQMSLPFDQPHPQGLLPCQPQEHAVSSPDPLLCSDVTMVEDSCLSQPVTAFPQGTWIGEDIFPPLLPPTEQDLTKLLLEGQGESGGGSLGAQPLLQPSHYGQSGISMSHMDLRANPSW
Test: Inhibition of STAT6 binding (duplex formation)
Procedure: The compounds of the present invention can be evaluated for STAT binding activity using methods such as those described in U.S. Pat. No. 6,207,391 (for STAT6 binding). Other assays for STAT binding can be found in, for example, U.S. Pat. Nos. 5,618,693, 5,639,858 and 5,756,700.
Using methods similar to those described in Examples 1 and 2, the compounds provided in Table 1 were prepared and evaluated as inhibitors of STAT6 binding (duplex formation). The assay is described in U.S. Pat. No. 6,207,391, filed Mar. 31, 1998. In each of the tables below: a + symbol indicates and IC50 of >100 μM; a ++ symbol indicates and IC50 of 50-100 μM; a +++ symbol indicates and IC50 of 1-50 μM; and a ++++ symbol indicates and IC50 of <1.0 μM.

[1] = Table 1, inhibitors of STAT6 binding (duplex formation)

Question: Which IC50 (Table 2, STAT6 binding) does the source give for `CC(C)(C)[C@H](NC(=O)/C=C/c1cccc(C(=O)O)n1)C(=O)N1CCC[C@H]1C(=O)N(c1ccccc1)c1ccc(C(N)=O)cc1` here?
Answer: Its IC50 is > 100 µM.

Question: Which IC50 [1] does the source give for `Cc1ccc(S(=O)(=O)N[C@@H]2C[C@@H](C(=O)N(Cc3ccccc3)c3ccc(C(N)=O)cc3)N(C(=O)[C@@H](NC(=O)/C=C/c3ccc(C(O)C(=O)O)cc3)C(C)(C)C)C2)cc1` (stereo partly shown) [drawing 46: H, —NH-Tosyl, 4-CONH2, H] here?
Answer: Its IC50 is > 100 µM.

Question: `CC(C)(C)[C@H](NC(=O)/C=C/c1ccc(C(O)C(=O)O)cc1)C(=O)N1C[C@H](N)C[C@H]1C(=O)N(Cc1ccccc1)c1ccc(C(N)=O)cc1` (stereo partly shown) [drawing 46: H, —NH2,4-CONH2, H] was tested. Which IC50 [1] did it give?
Answer: Its IC50 is 1 to 50 µM.

Question: For `Cc1ccc(N(C(=O)C2CCCN2C(=O)C(NC(=O)C=Cc2ccc(OP(=O)(O)O)cc2)C(C)(C)C)c2ccccc2)cc1` (stereo not shown) [drawing 69: CH3], which IC50 (Table 3, STAT6 binding) is on record?
Answer: Its IC50 is < 1 µM.

Question: For `CC(C)(C)c1ccc(CN(C(=O)C2CCCN2C(=O)C(NC(=O)C=Cc2ccc(OP(=O)(O)O)cc2)C(C)(C)C)c2ccccc2)cc1` (stereo not shown) [drawing 70: H, 4-t-butyl], which IC50 (Table 4, STAT6 binding) is on record?
Answer: Its IC50 is 1 to 50 µM.

Question: How did the IC50 (Table 2, STAT6 binding) turn out when `CC(C)(C)[C@H](NC(=O)/C=C/c1ccc(P(=O)(O)O)cc1)C(=O)N1CCC[C@H]1C(=O)N(c1ccccc1)c1ccc(C(N)=O)cc1` was run?
Answer: The IC50 was 1 to 50 µM.

Question: Which IC50 (Table 3, STAT6 binding) does the source give for `CC(C)(C)C(NC(=O)C=Cc1ccc(OP(=O)(O)O)cc1)C(=O)N1CCCC1C(=O)N(c1ccccc1)c1ccc(I)cc1` (stereo not shown) [drawing 69: I] here?
Answer: The IC50 was < 1 µM.

Question: How did the IC50 [1] turn out when `CC(C)C(=O)N[C@@H]1C[C@@H](C(=O)N(Cc2ccccc2)c2ccc(C(N)=O)cc2)N(C(=O)[C@@H](NC(=O)/C=C/c2ccc(C(O)C(=O)O)cc2)C(C)(C)C)C1` (stereo partly shown) [drawing 46: H, —NHCOCH(CH3)2, 4-CONH2, H] was run?
Answer: The IC50 was 1 to 50 µM.

Question: How did the IC50 [1] turn out when `CC(C)(C)[C@H](NC(=O)/C=C/c1ccc(C(O)C(=O)O)cc1)C(=O)N1C[C@H](NC(=O)c2ccccc2)C[C@H]1C(=O)N(Cc1ccccc1)c1ccc(C(N)=O)cc1` (stereo partly shown) [drawing 46: H, —NHBz, 4-CONH2, H] was run?
Answer: The IC50 was 1 to 50 µM.

Question: Which IC50 (Table 4, STAT6 binding) does the source give for `CC(C)(C)C(NC(=O)C=Cc1ccc(OP(=O)(O)O)cc1)C(=O)N1CCCC1C(=O)N(Cc1ccc(-c2ccccc2)cc1)c1ccccc1` (stereo not shown) [drawing 70: H, 4-phenyl] here?
Answer: Its IC50 is 1 to 50 µM.
